One experiment relates to MV4-11. The experiment can be described thus: Proliferation assay (MTT, leukaemia cancer cell line). The format is cell-based. The conditions noted are these: Homo sapiens; 1 µM compound, MV4-11 cells. The source says:
Compounds from Example 1 were subjected to standard resazurin and MTT assays on solid tumour and leukaemia cancer cell lines, respectively, as previously reported (Wang S et al., J Med Chem 47:1662-1675, 2004 and Diab S et al., CheMedChem 9:962-972, 2014).

A further experiment addresses T1, AXL (Homo sapiens, UniProt P30530).
T1 construct: purchased Eurofins Discovery (Kinase Profiler service)
T1 sequence (P30530 26-894): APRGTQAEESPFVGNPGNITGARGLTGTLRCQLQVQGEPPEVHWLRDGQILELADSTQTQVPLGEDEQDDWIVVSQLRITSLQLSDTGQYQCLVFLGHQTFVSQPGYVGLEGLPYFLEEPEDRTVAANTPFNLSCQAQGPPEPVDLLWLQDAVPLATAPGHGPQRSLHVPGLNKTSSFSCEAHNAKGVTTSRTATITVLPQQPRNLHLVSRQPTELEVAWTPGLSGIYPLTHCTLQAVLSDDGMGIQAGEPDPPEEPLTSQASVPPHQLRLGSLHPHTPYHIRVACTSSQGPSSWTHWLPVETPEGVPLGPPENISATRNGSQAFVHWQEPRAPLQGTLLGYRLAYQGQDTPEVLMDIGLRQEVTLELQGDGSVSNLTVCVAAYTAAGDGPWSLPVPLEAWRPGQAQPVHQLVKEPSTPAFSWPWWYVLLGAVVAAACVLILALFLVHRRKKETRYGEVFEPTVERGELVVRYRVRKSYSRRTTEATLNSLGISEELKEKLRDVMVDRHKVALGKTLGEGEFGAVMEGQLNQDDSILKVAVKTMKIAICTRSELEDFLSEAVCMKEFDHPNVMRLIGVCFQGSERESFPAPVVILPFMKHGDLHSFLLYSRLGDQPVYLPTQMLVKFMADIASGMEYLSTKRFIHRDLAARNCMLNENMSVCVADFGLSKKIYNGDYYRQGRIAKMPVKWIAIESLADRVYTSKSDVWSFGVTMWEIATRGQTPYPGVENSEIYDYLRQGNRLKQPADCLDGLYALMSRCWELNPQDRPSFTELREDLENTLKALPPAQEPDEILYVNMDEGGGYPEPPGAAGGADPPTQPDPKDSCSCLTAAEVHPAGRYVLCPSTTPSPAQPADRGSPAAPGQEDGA
The experiment can be described thus: Filter-binding radiometric kinase activity assay (KinaseProfiler, Eurofins). As to conditions: 1 µM compound; read-out: % Residual enzymatic activity at 1 µM AXL. The format is biochemical. As to the method: (§1) Filter-binding radiometric kinase activity assay (Kinase Profiler™) from Eurofins Discovery was used to determine the % of inhibition and/or IC50 values. […] The reaction is initiated by the addition of the Mg/ATP mixture. After incubation for 40 minutes at room temperature, the reaction is stopped by the addition of phosphoric acid to a concentration of 0.5%. 10 µL of the reaction is then spotted onto a P30 filter mat and washed four times for 4 minutes in 0.425% phosphoric acid and once in methanol prior to drying and scintillation counting. The IC50 values were derived by fitting a sigmoidal dose-response curve to a plot of assay readout over inhibitor concentration. All fits were computed with the GraphPad Prism Software (San Diego, CA, United States of America). Ki values were derived from IC5o values using Cheng Prusoff equation (Cheng Y et al., Biochem Pharmacol 22(23):3099-3108, 1973).

A further experiment has as its target T2, Mer (Homo sapiens, UniProt Q12866).
T2 construct: purchased Eurofins Discovery (Kinase Profiler service)
T2 sequence (Q12866 21-999): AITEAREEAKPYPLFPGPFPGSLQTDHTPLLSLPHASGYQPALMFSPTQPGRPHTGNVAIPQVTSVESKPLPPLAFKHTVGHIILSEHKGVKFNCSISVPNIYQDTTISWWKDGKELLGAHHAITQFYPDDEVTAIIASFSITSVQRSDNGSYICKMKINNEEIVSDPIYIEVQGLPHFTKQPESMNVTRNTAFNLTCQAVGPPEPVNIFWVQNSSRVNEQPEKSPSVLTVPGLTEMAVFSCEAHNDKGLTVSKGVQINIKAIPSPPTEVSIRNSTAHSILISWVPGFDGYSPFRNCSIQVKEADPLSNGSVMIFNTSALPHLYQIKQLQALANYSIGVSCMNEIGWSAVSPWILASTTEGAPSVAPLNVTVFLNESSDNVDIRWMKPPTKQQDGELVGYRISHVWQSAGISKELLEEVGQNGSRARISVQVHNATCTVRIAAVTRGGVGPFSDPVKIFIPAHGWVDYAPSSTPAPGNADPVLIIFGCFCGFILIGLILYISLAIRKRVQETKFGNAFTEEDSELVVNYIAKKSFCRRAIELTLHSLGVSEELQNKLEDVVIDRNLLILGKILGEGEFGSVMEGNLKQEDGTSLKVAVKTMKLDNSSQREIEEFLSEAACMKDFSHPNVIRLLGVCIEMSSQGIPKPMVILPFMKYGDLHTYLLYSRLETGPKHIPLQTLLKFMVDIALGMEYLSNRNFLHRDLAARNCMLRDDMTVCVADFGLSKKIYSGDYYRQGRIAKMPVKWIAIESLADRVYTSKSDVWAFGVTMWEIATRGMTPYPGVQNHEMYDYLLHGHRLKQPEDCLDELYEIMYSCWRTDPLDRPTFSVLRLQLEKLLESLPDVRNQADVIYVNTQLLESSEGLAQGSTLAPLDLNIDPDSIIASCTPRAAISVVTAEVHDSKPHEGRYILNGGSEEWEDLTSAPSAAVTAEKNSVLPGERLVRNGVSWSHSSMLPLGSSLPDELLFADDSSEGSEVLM
The description is as above. The format is biochemical. The conditions noted are these: 1 µM compound; read-out: % Residual enzymatic activity at 1 µM Mer. The method, then: as §1

The next experiment deals with T3, MET (Homo sapiens, UniProt P08581).
T3 construct: purchased Eurofins Discovery (Kinase Profiler service)
The description is as above. The class given is biochemical. As to conditions: 1 µM compound; read-out: % Residual enzymatic activity at 1 µM MET. The method, then:
as §1

In another experiment the target is T4, TYRO3 (Homo sapiens, UniProt Q06418).
T4 construct: purchased Eurofins Discovery (Kinase Profiler service)
T4 sequence (Q06418 41-890): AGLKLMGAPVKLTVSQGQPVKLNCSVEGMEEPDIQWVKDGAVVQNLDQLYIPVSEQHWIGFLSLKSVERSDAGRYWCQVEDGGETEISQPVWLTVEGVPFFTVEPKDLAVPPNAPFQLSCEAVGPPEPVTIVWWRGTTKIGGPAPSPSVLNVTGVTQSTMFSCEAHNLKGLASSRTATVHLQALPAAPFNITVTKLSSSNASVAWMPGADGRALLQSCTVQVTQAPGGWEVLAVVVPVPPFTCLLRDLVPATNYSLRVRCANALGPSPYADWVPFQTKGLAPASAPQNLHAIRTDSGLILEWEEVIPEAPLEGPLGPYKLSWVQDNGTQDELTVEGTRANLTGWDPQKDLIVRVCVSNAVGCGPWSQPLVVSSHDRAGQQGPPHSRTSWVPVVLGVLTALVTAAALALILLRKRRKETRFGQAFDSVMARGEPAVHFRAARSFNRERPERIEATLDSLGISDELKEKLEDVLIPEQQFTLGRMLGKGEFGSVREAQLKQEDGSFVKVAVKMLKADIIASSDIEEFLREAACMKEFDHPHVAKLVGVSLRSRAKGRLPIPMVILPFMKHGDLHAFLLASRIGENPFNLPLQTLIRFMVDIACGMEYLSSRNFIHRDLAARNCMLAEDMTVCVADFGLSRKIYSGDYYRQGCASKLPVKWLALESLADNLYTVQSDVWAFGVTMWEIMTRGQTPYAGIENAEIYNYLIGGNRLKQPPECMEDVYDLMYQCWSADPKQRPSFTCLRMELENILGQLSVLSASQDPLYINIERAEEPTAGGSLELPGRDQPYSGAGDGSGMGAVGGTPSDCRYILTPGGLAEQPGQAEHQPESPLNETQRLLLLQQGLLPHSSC
The experiment is described as above. The format is biochemical. The conditions noted are these: 1 µM compound; read-out: % Residual enzymatic activity at 1 µM TYRO3. The method, then:
as §1

Another experiment deals with FLT3-ITD. The experiment can be described thus: ADP Glo Kinase assay. The format is biochemical. The conditions noted are these: 1 µM compound. As to the method: (§2) Inhibition of CDKs and FLT3 were determined using ADP Glo Kinase assays, as previously described in International Patent Publication No WO 2017/020065.
On the technique in general: ADP-Glo turns the ADP formed in a reaction into a luminescent signal.

A further experiment has as its target CDK2E (Homo sapiens, UniProt P24941). Put plainly: ADP Glo Kinase assay. The class given is biochemical. As to conditions: 1 µM compound; read-out: % Residual enzymatic activity at 1 µM CDK2E. The method, then:
as §2

T3 sequence (P08581 25-1390): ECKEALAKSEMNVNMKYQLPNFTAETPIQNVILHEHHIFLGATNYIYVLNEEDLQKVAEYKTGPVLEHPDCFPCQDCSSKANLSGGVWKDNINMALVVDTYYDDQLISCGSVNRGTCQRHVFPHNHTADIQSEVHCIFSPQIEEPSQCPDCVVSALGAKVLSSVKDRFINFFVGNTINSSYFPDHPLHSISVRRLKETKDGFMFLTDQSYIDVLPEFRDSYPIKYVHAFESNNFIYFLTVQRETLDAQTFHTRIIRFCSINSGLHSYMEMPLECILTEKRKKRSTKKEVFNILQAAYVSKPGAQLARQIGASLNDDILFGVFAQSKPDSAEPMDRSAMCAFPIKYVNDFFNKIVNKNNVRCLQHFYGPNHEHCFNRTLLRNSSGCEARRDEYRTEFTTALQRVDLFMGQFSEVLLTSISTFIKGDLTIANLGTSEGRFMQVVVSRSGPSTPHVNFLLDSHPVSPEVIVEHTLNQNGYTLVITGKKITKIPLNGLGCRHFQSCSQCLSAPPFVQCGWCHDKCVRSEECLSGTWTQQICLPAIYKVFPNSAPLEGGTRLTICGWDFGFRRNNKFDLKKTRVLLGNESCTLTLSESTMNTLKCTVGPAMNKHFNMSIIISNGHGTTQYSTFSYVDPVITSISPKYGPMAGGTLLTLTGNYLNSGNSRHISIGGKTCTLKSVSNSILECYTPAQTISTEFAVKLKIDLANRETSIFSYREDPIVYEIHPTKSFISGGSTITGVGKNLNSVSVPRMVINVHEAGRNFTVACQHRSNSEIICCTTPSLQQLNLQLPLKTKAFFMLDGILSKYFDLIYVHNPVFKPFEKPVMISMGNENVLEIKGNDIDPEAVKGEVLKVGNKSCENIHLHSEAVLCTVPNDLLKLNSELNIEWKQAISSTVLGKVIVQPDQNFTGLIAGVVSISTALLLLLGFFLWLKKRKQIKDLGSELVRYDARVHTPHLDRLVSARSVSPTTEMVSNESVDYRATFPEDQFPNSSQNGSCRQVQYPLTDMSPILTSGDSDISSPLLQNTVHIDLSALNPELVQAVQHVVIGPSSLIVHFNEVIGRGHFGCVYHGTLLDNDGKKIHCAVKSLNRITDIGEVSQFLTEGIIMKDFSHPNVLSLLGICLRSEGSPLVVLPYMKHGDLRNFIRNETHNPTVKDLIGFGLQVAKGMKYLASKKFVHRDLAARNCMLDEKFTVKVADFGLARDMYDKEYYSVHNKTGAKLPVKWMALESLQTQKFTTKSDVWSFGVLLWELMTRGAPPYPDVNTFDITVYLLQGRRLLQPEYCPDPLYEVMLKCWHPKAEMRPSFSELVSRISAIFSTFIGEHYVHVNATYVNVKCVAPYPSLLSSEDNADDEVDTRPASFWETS

`Nc1ncnc(Oc2ccc(NC(=O)c3cccn(-c4ccc(F)cc4)c3=O)c(F)c2F)c1Cl` [Cmpd 13, N-(4-((6-amino-5-chloropyrimidin-4-yl)oxy)-2,3-difluorophenyl)-1-(4-fluorophenyl)-2-oxo-1,2-dihydropyridine-3-carboxamide] returned an activity at 1 µM in the experiment with MV4-11 of 7%. The remaining activity at 1 µM is 67% at AXL, 91% on Mer, 94% at MET and 87% on TYRO3. In the experiment on FLT3-ITD, the “% Residual enzymatic activity at 1 µM FLT3-ITD” value (from here on “% Residual enzymatic activity”) is given as 74%.
Turning to `Nc1ncnc(Oc2ccc(NC(=O)c3cccn(-c4ccc(OC(F)(F)F)cc4)c3=O)cc2F)c1F` [Cmpd 8, N-(4-((6-amino-5-fluoropyrimidin-4-yl)oxy)-3-fluorophenyl)-2-oxo-1-(4-(trifluoromethoxy)phenyl)-1,2-dihydropyridine-3-carboxamide], the remaining activity at 1 µM was found to be 112% at AXL, 100% on Mer, 85% at MET and 111% on TYRO3. In the experiment with FLT3-ITD, the “% Residual enzymatic activity” value is 91%.
With `Nc1ncnc(Oc2ccc(NC(=O)c3cccn(-c4ccc(Cl)cc4)c3=O)cc2F)c1F` [Cmpd 34, N-(4-((6-amino-5-fluoropyrimidin-4-yl)oxy)-3-fluorophenyl)-1-(4-chlorophenyl)-2-oxo-1,2-dihydropyridine-3-carboxamide], the activity at 1 µM in the experiment with MV4-11 was 3%. The remaining activity at 1 µM at AXL came out at 50%; at Mer, 103%; on MET it was 91%; at TYRO3 it was 69%; at CDK2E it was 97%.
For the molecule `Cc1ccc(-n2cccc(C(=O)Nc3ccc(Oc4ncnc(N)c4F)c(F)c3)c2=O)cc1` [Cmpd 35, N-(4-((6-amino-5-fluoropyrimidin-4-yl)oxy)-3-fluorophenyl)-2-oxo-1-(p-tolyl)-1,2-dihydropyridine-3-carboxamide], in the experiment with MV4-11, the activity at 1 µM was determined as 6%. The remaining activity at 1 µM was 70% on AXL; 99% on Mer; 60% at MET; 14% at TYRO3; 97% on CDK2E.
Turning to `Nc1ncnc(Oc2ccc(NC(=O)c3cccn(-c4ccc(C(F)(F)F)cc4)c3=O)cc2F)c1F` [Cmpd 9, N-(4-((6-amino-5-fluoropyrimidin-4-yl)oxy)-3-fluorophenyl)-2-oxo-1-(4-(trifluoromethyl)phenyl)-1,2-dihydropyridine-3-carboxamide], the remaining activity at 1 µM at AXL came out at 105%; at Mer, 85%; on MET, 64%; at TYRO3, 106%. In addition, the “% Residual enzymatic activity” value in the experiment on FLT3-ITD is given as 88%.
Regarding `Nc1ncnc(Nc2ccc(NC(=O)c3cccn(-c4ccc(F)cc4)c3=O)cc2F)c1Cl` [Cmpd 36, N-(4-((6-amino-5-chloropyrimidin-4-yl)amino)-3-fluorophenyl)-1-(4-fluorophenyl)-2-oxo-1,2-dihydropyridine-3-carboxamide], in the experiment with MV4-11, the activity at 1 µM was 4%. Besides, the remaining activity at 1 µM at AXL stood at 97%; at Mer it was 99%; at MET it was 87%; at TYRO3 it was 70%; on CDK2E it was 96%.
Turning to `Nc1ncnc(Sc2ccc(NC(=O)c3cccn(-c4ccc(F)cc4)c3=O)cc2F)c1F` [Cmpd 19, N-(4-((6-amino-5-fluoropyrimidin-4-yl)thio)-3-fluorophenyl)-1-(4-fluorophenyl)-2-oxo-1,2-dihydropyridine-3-carboxamide], in the experiment with MV4-11, the activity at 1 µM was determined as 6%. The remaining activity at 1 µM turned out to be 84% at AXL; 99% at Mer; 78% on MET; 89% on TYRO3; 93% at CDK2E.
In the experiment on MV4-11, `Nc1ncnc(Sc2ccc(NC(=O)c3cccn(-c4ccc(F)cc4)c3=O)cc2F)c1Cl` [Cmpd 17, N-(4-((6-amino-5-chloropyrimidin-4-yl)thio)-3-fluorophenyl)-1-(4-fluorophenyl)-2-oxo-1,2-dihydropyridine-3-carboxamide] yielded an activity at 1 µM of 4%. The remaining activity at 1 µM was determined as 55% at AXL; 81% on Mer; 65% on MET; 52% on TYRO3; 101% at CDK2E.
